Experimental data published in patent US20070048234A1, “COMPOSITIONS AND METHODS FOR TREATING ACNE” (REVANCE THERAPEUTICS, INC., priority 2005, published 2007).
Structures can show the parent of a compound that is named as a salt.

Key:
[1] = test system: propionibacterium acnes (P. Acnes); conditions: compared with other medications on the market, prescription or otherwise; cited from earlier work
[2] = when topically applied; cited from earlier work
[3] = topical application; cited from earlier work
[4] = test system: acne lesion; assay: topical multi-step treatment of an acne lesion (vasoconstricting composition, then anti-acne agent); type: in vivo; conditions: upon topical application of the vasoconstricting composition to the acne lesion
Source text: (§1) This example provides a two step treatment for acne. The first step involves topically applying a vasoconstricting composition to the acne lesion to be treated. Suitable vasoconstricting compositions include tetrahydrozoline HCl 0.05%, naphazoline HCl 0.03%, or oxymetazoline HCl 0.025% in an aqueous base containing HPC to increase the viscosity for ease of application. Upon application of the vasoconstricting composition, the redness and swelling of the acne lesion diminishes, making the acne lesion less noticeable. After about 5 minutes, a second step is performed which involves topically applying 5% benzoyl peroxide 5% in an oil-in water moisturizer base. In this example, the benzoyl peroxide 5% is tinted to match the skin tone of the user, but this tinting is optional.
as §1, with “three-step nighttime” for “two step”, “peroxide” for “peroxide 5%”, “The acne lesion is then covered with a patch that includes silicone on” for “In this example,”, “skin-side” for “benzoyl peroxide 5% is tinted to match the skin tone”, “patch. The patch remains in place overnight and” for “user, but this tinting”, “removed in the morning.” for “optional.”
The following night, the three-step acne treatment is repeated.
This example provides a three-step acne treatment that is suitable for daytime use. The first step involves topically applying a vasoconstricting composition to the acne lesion to be treated. Suitable vasoconstricting compositions include tetrahydrozoline HCl 0.05%, naphazoline HCl 0.03%, or oxymetazoline HCl 0.025% in an aqueous base containing HPC to increase the viscosity for ease of application. […]

| Compound | kills propionibacterium acnes (P. Acnes) [1] | share of the population that experiences skin allergies [2] | flux into the skin [3] | redness and swelling of the acne lesion [4] |
| --- | --- | --- | --- | --- |
| O=C(OOC(=O)c1ccccc1)c1ccccc1 [benzoyl peroxide] | better than any other medication on the market | about 10% | high |  |
| c1ccc2c(CC3=NCCN3)cccc2c1 [naphazoline HCl 0.03%, naphazoline HCl] |  |  |  | diminishes |
| Cc1cc(C(C)(C)C)c(O)c(C)c1CC1=NCCN1 [oxymetazoline HCl 0.025%, oxymetazoline HCl] |  |  |  | diminishes |
| c1ccc2c(c1)CCCC2C1=NCCN1 (stereo not drawn) [tetrahydrozoline HCl 0.05%, tetrahydrozoline HCl] |  |  |  | diminishes |
